# Patent US20170304400A1, “METHODS FOR PREVENTING FIBROSIS USING CXCR4 AND/OR CXCR7 BINDING AGENTS” (ViCapsys.Inc, priority 2016, published 2017)
# System: non-human primate (NHP)
# Assay: Intraperitoneal implant of alginate microbeads in non-human primates: surgical inspection, lavage recovery and biopsy histopathology
# Assay type: in vivo
# Procedure: In the first non-human primate (NHP) study with alginate microbeads, two animals received intraperitoneal implants of ˜400,000 microbeads each of (1.6% calcium LVM) alginate containing either 1 μg/ml of recombinant human CXCL12 (“CXCL12^+”) or not (“CXCL12”). Microbeads were prepared using a vibrational encapsulation method using a 200 μm nozzle. Microbeads were on average 426-427 μm in diameter with an error of the mean of approximately 10-15%. The diameter was measured after 2 hours in culture media. Microbeads swell 30-40% after transfer into some media or after implantation. Median roundness was less than the desirable 0.90, ranging from 0.78 in the CXCL12^− microbeads (FIG. 1) to 0.80 in the CXCL12^+ (FIG. 2), but with a skew in roundness reflecting a small but significant number of non-round beads. Microbeads were delivered in a blinded manner to operators. During the implant, primate 0715 received the CXCL12^− implant; primate 1715 received the CXCL12^+ implant. Both animals were implanted using a minimally invasive technique featuring placement of beads in 30 cc of 300 mOsmolar calcium chloride solution in the intraperitoneal space and explanted surgically. Neither of the procedures was eventful. Both animals appeared healthy during the entire period of four weeks following the implantation procedure. The explant procedure for each animal involved surgical opening of the peritoneal cavity, visual inspection of all regions of the mesentery and abdomen/pelvis for bead position, lavage with 100 cc of N-saline to recover free microbeads and peritoneal fluid, and biopsy of tissues where microbeads appeared to be embedded in the tissue. Evaluation was done at 30, 90, and 180 days. Arrows point to adhesions.
substance,measurement,setting,value
CXCL12: chemokine CXCL12 (also called SDF-1); recombinant human CXCL12 used in the microbeads,adhesions following surgery or explantation of the capsules,CXCL12 applied into the intraperitoneal cavity in alginate capsules,no adhesions
same,long-term appearance of the peritoneum / surgical adhesions,"later timepoints (day 90 and day 180), compared to CXCL12^- NHP",more normal and without surgical adhesions
same,foreign body responses to embedded microbeads,through 90 days,spare embedded microbeads from foreign body responses
